Measurements taken from patent US20220298141A1, “ENZYME INHIBITORS” (KALVISTA PHARMACEUTICALS LIMITED, priority 2019, published 2022).

Target: T1, Human Factor XIIa (Homo sapiens, UniProt P00748)
T1 construct: purchased Enzyme Research Laboratories
T1 sequence (P00748 373-615 limits assumed): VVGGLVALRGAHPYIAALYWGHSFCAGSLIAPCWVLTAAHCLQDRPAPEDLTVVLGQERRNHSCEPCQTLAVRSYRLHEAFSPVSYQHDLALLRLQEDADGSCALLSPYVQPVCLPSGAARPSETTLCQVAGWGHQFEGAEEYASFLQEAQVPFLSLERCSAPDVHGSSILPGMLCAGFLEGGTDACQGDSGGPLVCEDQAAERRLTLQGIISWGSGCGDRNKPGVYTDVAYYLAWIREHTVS
T1 sequence (P00748 20-372 partner limits assumed): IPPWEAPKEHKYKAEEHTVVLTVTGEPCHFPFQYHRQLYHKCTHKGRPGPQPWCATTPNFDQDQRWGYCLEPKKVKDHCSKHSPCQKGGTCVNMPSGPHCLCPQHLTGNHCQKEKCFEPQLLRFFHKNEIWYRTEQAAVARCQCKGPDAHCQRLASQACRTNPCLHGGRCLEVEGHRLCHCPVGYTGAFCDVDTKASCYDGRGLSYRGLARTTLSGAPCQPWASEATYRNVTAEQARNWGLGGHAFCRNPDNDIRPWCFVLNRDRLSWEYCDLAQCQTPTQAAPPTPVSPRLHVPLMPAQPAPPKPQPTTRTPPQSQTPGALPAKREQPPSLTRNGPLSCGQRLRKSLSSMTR
Assay: Determination of Factor XIIa inhibitory activity in vitro (fluorogenic substrate H-DPro-Phe-Arg-AFC)
Type: biochemical
Settings: Human Factor XIIa (Enzyme Research Laboratories), 25° C., read-out: Human FXIIa IC50
Protocol: Determination of the % Inhibition for FXIIa
Factor XIIa inhibitory activity in vitro was determined using standard published methods (see e.g. Shori et al., Biochem. Pharmacol., 1992, 43, 1209; Baeriswyl et al., ACS Chem. Biol., 2015, 10 (8) 1861; Bouckaert et al., European Journal of Medicinal Chemistry 110 (2016) 181). Human Factor XIIa (Enzyme Research Laboratories) was incubated at 25° C. with the fluorogenic substrate H-DPro-Phe-Arg-AFC and various concentrations of the test compound. Residual enzyme activity (initial rate of reaction) was determined by measuring the […] and the IC50 value for the test compound was determined.

Row | SMILES | IC50 [µM]
1 | CC(C)N(CCNc1ncc(C(=O)NCc2ccc3c(N)nccc3c2)cc1Cl)C(C)C [Example 11.20, N-((1-aminoisoquinolin-6-yl)methyl)-5-chloro-6-((2-(diisopropylamino)ethyl)amino)nicotinamide] | 1 to 3
2 | CN(C)CCCNc1ncc(C(=O)NCc2ccc3c(N)nccc3c2)cc1Cl [Example 11.21] | 3 to 10
3 | CC(C)N1CCN(CCCNc2ncc(C(=O)NCc3ccc4c(N)nccc4c3)cc2Cl)CC1 [Example 11.22] | 3 to 10
4 | CN(C)CCOc1ccc(CNc2ncc(C(=O)NCc3ccc4c(N)nccc4c3)cc2Cl)cc1 [Example 11.23, N-((1-aminoisoquinolin-6-yl)methyl)-5-chloro-6-((4-(2-(dimethylamino)ethoxy)benzyl)amino)nicotinamide] | 3 to 10
5 | CN1CCN(CCCNc2ncc(C(=O)NCc3ccc4c(N)nccc4c3)cc2Cl)CC1 [Example 11.24] | 3 to 10
6 | COc1ccc(Nc2ncc(C(=O)NCc3ccc4c(N)nccc4c3)cc2Cl)cc1 [Example 11.25] | 10 to 40
7 | CN(C)c1ccc(Nc2ncc(C(=O)NCc3ccc4c(N)nccc4c3)cc2Cl)cc1 [Example 11.26] | 10 to 40
8 | Nc1nccc2cc(CNC(=O)c3cnc(Nc4ccc(N5CCOCC5)cc4)c(Cl)c3)ccc12 [Example 11.27] | 10 to 40
9 | Nc1nccc2cc(CNC(=O)c3cnc(Oc4ccc(Cl)cc4)c(Cl)c3)ccc12 [Example 13.01] | 10 to 40
10 | COc1ccc(Oc2ncc(C(=O)NCc3ccc4c(N)nccc4c3)cc2Cl)cc1 [Example 13.02] | 10 to 40
11 | Nc1nccc2cc(CNC(=O)c3cnc(Oc4cccc(N5CCOCC5)c4)c(Cl)c3)ccc12 [Example 13.03] | 10 to 40
12 | Nc1nccc2cc(CNC(=O)c3cnc(OCc4cccnc4)c(Cl)c3)ccc12 [Example 13.04] | 10 to 40
13 | Nc1nccc2cc(CNC(=O)c3cnc(Oc4ccccc4)c(Cl)c3)ccc12 [Example 13.05] | 10 to 40
14 | Nc1nccc2cc(CNC(=O)c3cnc(Oc4ccccc4Cl)c(Cl)c3)ccc12 [Example 13.06] | 10 to 40
15 | N#Cc1ccc(Oc2ncc(C(=O)NCc3ccc4c(N)nccc4c3)cc2Cl)cc1 [Example 13.07] | 10 to 40
16 | N#Cc1cccc(Oc2ncc(C(=O)NCc3ccc4c(N)nccc4c3)cc2Cl)c1 [Example 13.08] | 10 to 40
17 | N#Cc1ccccc1Oc1ncc(C(=O)NCc2ccc3c(N)nccc3c2)cc1Cl [Example 13.09, N-((1-aminoisoquinolin-6-yl)methyl)-5-chloro-6-(2-cyanophenoxy)nicotinamide] | 3 to 10
18 | CN(C)c1ccc(Oc2ncc(C(=O)NCc3ccc4c(N)nccc4c3)cc2Cl)cc1 [Example 13.10] | 10 to 40
19 | COc1cccc(Oc2ncc(C(=O)NCc3ccc4c(N)nccc4c3)cc2Cl)c1 [Example 13.11] | 10 to 40
20 | COc1ccccc1Oc1ncc(C(=O)NCc2ccc3c(N)nccc3c2)cc1Cl [Example 13.12] | 10 to 40
21 | Cn1cnc2cc(Oc3ncc(C(=O)NCc4ccc5c(N)nccc5c4)cc3Cl)ccc21 [Example 13.13] | 3 to 10
22 | Nc1nccc2cc(CNC(=O)c3cnc(Oc4cccc(N5CCCC5=O)c4)c(Cl)c3)ccc12 [Example 13.14] | 10 to 40
23 | CS(=O)(=O)c1ccc(Oc2ncc(C(=O)NCc3ccc4c(N)nccc4c3)cc2Cl)cc1 [Example 13.15] | 10 to 40
24 | CC(C)NC(=O)N(C)c1ccc(Oc2ncc(C(=O)NCc3ccc4c(N)nccc4c3)cc2Cl)cc1 [Example 13.16] | 3 to 10
25 | CN1CCC(COc2ncc(C(=O)NCc3ccc4c(N)nccc4c3)cc2Cl)CC1 [Example 13.17] | 10 to 40

Row | SMILES | IC50 [µM]
26 | Nc1nccc2cc(CNC(=O)c3cnc(OCCN4CCCC4)c(Cl)c3)ccc12 [Example 13.18] | 10 to 40
27 | CN(C)CCOc1ncc(C(=O)NCc2ccc3c(N)nccc3c2)cc1Cl [Example 13.19] | 10 to 40
28 | Nc1nccc2cc(CNC(=O)c3cnc(OCc4ccccn4)c(Cl)c3)ccc12 [Example 13.20] | 10 to 40
29 | Nc1nccc2cc(CNC(=O)c3cnc(OCc4ccncc4)c(Cl)c3)ccc12 [Example 13.21] | 10 to 40
30 | CCN(CC)CCCOc1ncc(C(=O)NCc2ccc3c(N)nccc3c2)cc1Cl [Example 13.22] | 10 to 40
31 | CN(C)CCCOc1ncc(C(=O)NCc2ccc3c(N)nccc3c2)cc1Cl [Example 13.23] | 10 to 40
32 | Nc1nccc2cc(CNC(=O)c3cnc(Oc4ccc(N5CCNCC5)cc4)c(Cl)c3)ccc12 [Example 13.24, N-((1-aminoisoquinolin-6-yl)methyl)-5-chloro-6-(4-(piperazin-1-yl)phenoxy)nicotinamide] | 1 to 3
33 | Nc1nccc2cc(CNC(=O)c3cnc(Oc4cccc(N5CCNCC5)c4)c(Cl)c3)ccc12 [Example 13.25] | 3 to 10
34 | CN1CCCN(c2ncc(Cl)cc2C(=O)NCc2ccc3c(N)nccc3c2)CC1 [Example 16.01] | 10 to 40
35 | Nc1nccc2cc(CNC(=O)c3cc(Cl)cnc3N3CC(O)C3)ccc12 [Example 16.02] | 10 to 40
36 | Nc1nccc2cc(CNC(=O)c3cc(Cl)cnc3N3CCN(c4ccncc4)CC3)ccc12 [Example 16.03] | 10 to 40
37 | COc1ccccc1-c1cncc(C(=O)NCc2ccc3c(N)nccc3c2)c1 [Example 19.01, N-((1-aminoisoquinolin-6-yl)methyl)-5-(2-methoxyphenyl)nicotinamide] | 10 to 40
38 | Nc1nccc2cc(CNC(=O)c3cncc(Br)c3)ccc12 [Example 19.02, N-((1-aminoisoquinolin-6-yl)methyl)-5-bromonicotinamide] | 10 to 40
39 | Nc1nccc2cc(CNC(=O)c3cnc4[nH]ccc4c3)ccc12 [Example 19.03, 1H-Pyrrolo[2,3-b]pyridine-5-carboxylic acid (1-amino-isoquinolin-6-ylmethyl)-amide] | 10 to 40
40 | Nc1nccc2cc(CNC(=O)c3cncc(Cl)c3)ccc12 [Example 19.04, N-((1-aminoisoquinolin-6-yl)methyl)-5-chloronicotinamide] | 10 to 40
41 | Nc1nccc2cc(CNC(=O)c3cccc(Cl)c3)ccc12 [Example 19.05, N-((1-aminoisoquinolin-6-yl)methyl)-3-chlorobenzamide] | 10 to 40
42 | Nc1nccc2cc(CNC(=O)c3cnc(Cl)c(Cl)c3)ccc12 [Example 19.06, N-(1-Amino-isoquinolin-6-ylmethyl)-5,6-dichloro-nicotinamide] | 3 to 10
43 | Nc1nccc2cc(CNC(=O)c3cc(Cl)cnc3Oc3ccc(N4CCCC4=O)cc3)ccc12 [Example 22.01, N-((1-aminoisoquinolin-6-yl)methyl)-5-chloro-2-(4-(2-oxopyrrolidin-1-yl)phenoxy)nicotinamide] | 3 to 10
44 | Cn1cnc2cc(Oc3ncc(Cl)cc3C(=O)NCc3ccc4c(N)nccc4c3)ccc21 [Example 22.02] | 10 to 40
45 | CN(C)c1ccc(Oc2ncc(Cl)cc2C(=O)NCc2ccc3c(N)nccc3c2)cc1 [Example 22.03] | 10 to 40
46 | CN(C(=O)C(C)(C)C)c1ccc(Oc2ncc(Cl)cc2C(=O)NCc2ccc3c(N)nccc3c2)cc1 [Example 22.04] | 10 to 40
47 | Nc1nccc2cc(CNC(=O)c3cc(Cl)cnc3Oc3cccc(N4CCCC4=O)c3)ccc12 [Example 22.05] | 10 to 40
48 | Nc1nccc2cc(CNC(=O)c3cc(Cl)cnc3OCCN3CCCCC3)ccc12 [Example 22.06] | 10 to 40
49 | CN1CCC(COc2ncc(Cl)cc2C(=O)NCc2ccc3c(N)nccc3c2)CC1 [Example 22.07] | 10 to 40
